{"source": "ChEMBL document CHEMBL1201862", "about": "“PubChem BioAssay data set” (2004)", "key": {"[1]": {"biological_target": "Luciferin 4-monooxygenase (Photinus pyralis, UniProt P08659)", "sequence (P08659 whole entry)": "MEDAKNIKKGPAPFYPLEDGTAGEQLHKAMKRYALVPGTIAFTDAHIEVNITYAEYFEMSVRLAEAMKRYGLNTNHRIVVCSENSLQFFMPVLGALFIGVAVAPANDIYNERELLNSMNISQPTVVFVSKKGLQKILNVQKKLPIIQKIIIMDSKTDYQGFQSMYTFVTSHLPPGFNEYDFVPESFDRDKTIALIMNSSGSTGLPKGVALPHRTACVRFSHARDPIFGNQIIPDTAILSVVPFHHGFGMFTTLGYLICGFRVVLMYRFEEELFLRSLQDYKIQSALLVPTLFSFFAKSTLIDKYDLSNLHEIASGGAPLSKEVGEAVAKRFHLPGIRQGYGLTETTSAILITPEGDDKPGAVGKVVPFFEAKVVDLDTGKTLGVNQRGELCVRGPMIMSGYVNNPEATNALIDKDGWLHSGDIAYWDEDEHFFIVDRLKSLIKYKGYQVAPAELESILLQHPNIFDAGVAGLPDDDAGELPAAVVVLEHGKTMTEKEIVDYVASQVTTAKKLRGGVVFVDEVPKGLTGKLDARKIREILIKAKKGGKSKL", "experiment": "firefly luciferase enzyme inhibitors, dose response, biochemical, luminescence (AID 1891)"}, "[2]": {"experiment": "Luminescence Cell-Based Dose Confirmation HTS to Identify Inhibitors of Platelet Dense Granule Release. [Related pubchem assays: 1663 (Primary HTS), 1678 (Summary of Project)]", "format": "functional"}, "[3]": {"biological_target": "FAD-linked sulfhydryl oxidase ALR (Homo sapiens, UniProt P55789)", "sequence (P55789 whole entry)": "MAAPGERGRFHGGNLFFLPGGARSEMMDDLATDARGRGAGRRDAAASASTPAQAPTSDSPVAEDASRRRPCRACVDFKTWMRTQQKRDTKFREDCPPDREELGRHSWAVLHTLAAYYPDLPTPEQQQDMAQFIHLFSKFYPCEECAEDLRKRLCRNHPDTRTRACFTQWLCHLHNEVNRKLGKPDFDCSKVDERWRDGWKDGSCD", "experiment": "inhibitors of human ALR sulfhydryl oxidase, dose response, biochemical, H2O2 detection, luminescence, cherry-pick (AID 493248)"}, "[4]": {"biological_target": "T1, Heat shock factor protein 1 (Mus musculus, UniProt P38532)", "T1 sequence (P38532 whole entry)": "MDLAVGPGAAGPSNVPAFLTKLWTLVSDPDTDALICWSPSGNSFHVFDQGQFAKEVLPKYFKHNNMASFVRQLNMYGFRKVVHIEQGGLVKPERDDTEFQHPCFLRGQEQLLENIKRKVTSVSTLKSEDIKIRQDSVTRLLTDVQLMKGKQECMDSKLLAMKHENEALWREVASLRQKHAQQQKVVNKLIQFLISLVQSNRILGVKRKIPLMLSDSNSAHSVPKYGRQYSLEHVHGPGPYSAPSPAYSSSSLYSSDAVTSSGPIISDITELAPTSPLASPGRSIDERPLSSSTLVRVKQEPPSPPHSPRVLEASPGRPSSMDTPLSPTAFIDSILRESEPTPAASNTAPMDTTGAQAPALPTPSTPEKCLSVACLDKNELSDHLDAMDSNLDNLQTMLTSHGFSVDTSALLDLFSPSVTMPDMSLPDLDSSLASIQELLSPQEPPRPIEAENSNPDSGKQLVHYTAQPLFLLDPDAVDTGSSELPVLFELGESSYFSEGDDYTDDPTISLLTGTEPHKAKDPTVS", "experiment": "inhibition of MG132-induced HSE-luciferase signal, confirmation, cell-based, NIH3T3, luminescence, dose retest (AID 2382);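 note: NIH3T3 fibroblasts with HSF1-driven luciferase reporter stressed by proteasome inhibitor MG132; luminescence from HSF1-driven luciferase expression after 8 hours of MG132 stress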", "format": "functional"}, "[5]": {"biological_target": "T2, Polyadenylate-binding protein 1 (Homo sapiens, UniProt P11940)", "T2 sequence (P11940 whole entry)": "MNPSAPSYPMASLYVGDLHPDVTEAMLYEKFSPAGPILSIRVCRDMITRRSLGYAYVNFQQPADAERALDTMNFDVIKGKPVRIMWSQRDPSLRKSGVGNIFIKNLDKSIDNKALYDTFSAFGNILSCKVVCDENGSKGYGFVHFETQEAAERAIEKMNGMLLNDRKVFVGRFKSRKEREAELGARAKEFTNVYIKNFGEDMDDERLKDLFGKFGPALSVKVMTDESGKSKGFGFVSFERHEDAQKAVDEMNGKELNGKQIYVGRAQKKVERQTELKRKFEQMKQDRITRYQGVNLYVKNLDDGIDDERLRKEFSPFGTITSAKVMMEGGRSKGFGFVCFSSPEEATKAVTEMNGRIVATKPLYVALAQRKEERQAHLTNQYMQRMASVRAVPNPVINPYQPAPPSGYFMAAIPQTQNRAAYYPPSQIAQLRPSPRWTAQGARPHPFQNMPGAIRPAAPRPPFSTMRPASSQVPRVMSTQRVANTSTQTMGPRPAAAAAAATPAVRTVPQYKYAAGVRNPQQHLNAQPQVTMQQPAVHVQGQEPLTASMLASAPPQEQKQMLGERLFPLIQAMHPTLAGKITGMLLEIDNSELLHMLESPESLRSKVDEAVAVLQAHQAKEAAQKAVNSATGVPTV", "experiment": "PABP1 MLLE–PAM2 interaction inhibitors, dose response, miRNA deadenylation inhibitor project, biochemical, fluorescence polarization, Cy5-PAM2 peptide, secondary (AID 602260)", "format": "functional", "conditions": "read-out: IC50_Mean"}, "[6]": {"biological_target": "T2, Polyadenylate-binding protein 1", "experiment": "PABP1 MLLE–PAM2 binding inhibitor potency, dose response, biochemical, fluorescence polarization, FITC-PAM2 peptide (AID 602259)", "format": "functional", "conditions": "read-out: IC50_Mean"}, "[7]": {"biological_target": "Cytochrome P450 2C19 (Homo sapiens, UniProt P33261)", "sequence (P33261 whole entry)": "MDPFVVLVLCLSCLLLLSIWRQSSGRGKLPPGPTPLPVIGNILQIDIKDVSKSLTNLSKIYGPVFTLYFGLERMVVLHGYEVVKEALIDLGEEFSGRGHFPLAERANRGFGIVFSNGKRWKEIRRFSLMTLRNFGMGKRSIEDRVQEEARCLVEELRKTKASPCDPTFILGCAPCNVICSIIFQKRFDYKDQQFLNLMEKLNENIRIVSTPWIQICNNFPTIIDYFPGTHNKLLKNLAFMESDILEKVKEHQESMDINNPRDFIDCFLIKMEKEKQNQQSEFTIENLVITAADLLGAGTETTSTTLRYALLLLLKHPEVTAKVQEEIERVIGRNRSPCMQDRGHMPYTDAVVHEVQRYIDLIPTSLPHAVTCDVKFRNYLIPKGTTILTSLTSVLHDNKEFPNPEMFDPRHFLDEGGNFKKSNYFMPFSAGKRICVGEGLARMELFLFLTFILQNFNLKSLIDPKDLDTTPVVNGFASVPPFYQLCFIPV", "experiment": "Cytochrome panel assay with activity outcomes. Panel member name: p450-cyp2c19 Compounds with AC50 equal or less than 10 uM are considered active", "format": "functional", "conditions": "read-out: AC50"}, "[8]": {"biological_target": "T3, Cytochrome P450 1A2 (Homo sapiens, UniProt P05177)", "T3 sequence (P05177 whole entry)": "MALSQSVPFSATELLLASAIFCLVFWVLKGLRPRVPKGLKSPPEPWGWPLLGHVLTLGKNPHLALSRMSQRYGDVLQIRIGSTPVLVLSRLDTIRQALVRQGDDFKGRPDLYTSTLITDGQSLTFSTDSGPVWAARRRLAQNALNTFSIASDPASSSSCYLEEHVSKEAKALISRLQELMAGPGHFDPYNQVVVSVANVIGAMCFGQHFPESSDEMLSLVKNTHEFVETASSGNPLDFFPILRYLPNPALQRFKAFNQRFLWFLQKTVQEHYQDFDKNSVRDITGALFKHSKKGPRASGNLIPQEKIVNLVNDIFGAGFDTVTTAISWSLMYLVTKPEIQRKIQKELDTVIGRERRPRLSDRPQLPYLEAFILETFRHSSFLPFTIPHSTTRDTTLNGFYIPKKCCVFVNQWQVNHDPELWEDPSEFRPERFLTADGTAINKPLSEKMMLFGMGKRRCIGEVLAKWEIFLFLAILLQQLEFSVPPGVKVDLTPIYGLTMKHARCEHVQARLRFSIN"}, "[9]": {"biological_target": "Paired box protein Pax-8 (Homo sapiens, UniProt Q06710)", "sequence (Q06710 whole entry)": "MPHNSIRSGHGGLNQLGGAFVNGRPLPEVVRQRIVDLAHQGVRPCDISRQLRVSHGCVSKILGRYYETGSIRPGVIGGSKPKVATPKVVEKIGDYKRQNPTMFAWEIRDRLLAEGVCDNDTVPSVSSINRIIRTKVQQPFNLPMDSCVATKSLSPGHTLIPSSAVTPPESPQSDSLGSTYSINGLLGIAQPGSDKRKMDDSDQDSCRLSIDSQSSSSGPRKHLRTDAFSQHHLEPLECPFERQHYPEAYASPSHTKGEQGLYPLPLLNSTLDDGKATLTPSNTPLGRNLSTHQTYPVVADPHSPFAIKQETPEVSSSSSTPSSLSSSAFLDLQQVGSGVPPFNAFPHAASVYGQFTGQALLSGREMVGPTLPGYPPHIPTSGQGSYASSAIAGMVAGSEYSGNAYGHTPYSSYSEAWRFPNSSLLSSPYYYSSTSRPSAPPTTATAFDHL", "experiment": "inhibitors of PAX8-driven TPO luciferase reporter, dose response, RMG-I cells, cherry-pick (AID 687027);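 note: luciferase reporter driven by Pax8 target thyroperoxidase promoter measured by SteadyGlo luminescence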", "format": "functional, cell-based"}, "[10]": {"biological_target": "Cytochrome P450 2D6 (Homo sapiens, UniProt P10635)", "sequence (P10635 whole entry)": "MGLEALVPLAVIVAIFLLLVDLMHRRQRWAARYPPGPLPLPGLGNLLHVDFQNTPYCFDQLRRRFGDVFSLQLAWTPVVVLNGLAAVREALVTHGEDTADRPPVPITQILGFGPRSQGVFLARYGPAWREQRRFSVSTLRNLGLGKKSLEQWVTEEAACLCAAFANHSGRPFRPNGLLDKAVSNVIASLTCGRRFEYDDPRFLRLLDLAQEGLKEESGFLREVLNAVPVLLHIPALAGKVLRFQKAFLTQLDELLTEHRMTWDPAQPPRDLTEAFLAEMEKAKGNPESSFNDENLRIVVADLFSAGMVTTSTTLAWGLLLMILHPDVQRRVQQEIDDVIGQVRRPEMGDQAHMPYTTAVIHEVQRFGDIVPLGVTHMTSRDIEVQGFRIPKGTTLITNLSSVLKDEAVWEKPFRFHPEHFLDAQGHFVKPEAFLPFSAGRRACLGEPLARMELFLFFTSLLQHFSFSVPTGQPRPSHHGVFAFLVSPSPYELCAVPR"}, "[11]": {"system": "Streptococcus sp. 'group A'", "experiment": "growth inhibition of control SK(-) GAS strain, dose response, counter-screen for streptokinase expression inhibitor project, luminescence, kanamycin, BacTiterGlo, confirmation (AID 1900)", "format": "functional, organism-based"}, "[12]": {"biological_target": "T4, Streptokinase A (Streptococcus pyogenes serotype M1, UniProt P10520)", "T4 sequence (P10520 whole entry)": "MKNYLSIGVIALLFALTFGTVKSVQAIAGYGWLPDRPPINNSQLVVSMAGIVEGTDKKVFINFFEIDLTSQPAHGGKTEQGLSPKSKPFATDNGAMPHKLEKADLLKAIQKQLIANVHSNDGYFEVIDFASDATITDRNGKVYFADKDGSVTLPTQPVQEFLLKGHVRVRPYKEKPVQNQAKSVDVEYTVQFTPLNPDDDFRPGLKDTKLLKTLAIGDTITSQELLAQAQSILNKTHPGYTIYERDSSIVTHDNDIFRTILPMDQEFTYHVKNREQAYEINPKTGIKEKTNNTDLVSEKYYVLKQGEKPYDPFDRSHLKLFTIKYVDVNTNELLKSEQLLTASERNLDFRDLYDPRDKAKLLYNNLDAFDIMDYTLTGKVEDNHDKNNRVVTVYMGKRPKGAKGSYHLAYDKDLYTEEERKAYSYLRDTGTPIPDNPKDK", "experiment": "S. pyogenes streptokinase expression inhibitors, potency, dose response, plasminogen activation absorbance, OD405 (AID 1914);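 note: secreted streptokinase activity via plasminogen activation per viability signal from cell pellet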", "format": "functional, Streptococcus pyogenes M1 GAS"}, "[13]": {"system": "Streptococcus", "experiment": "Group A Streptococcus viability loss, dose response, counter-screen for streptokinase expression inhibitor project, luminescence, BacTiterGlo (AID 1915);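 note: potency for reduction of bacterial viability or growth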", "format": "functional, organism-based"}}, "note": "Activity calls are given as the source filed them.", "data": [{"smiles": "CC(=O)C1C(c2ccc(Cl)cc2)NC(=O)NC1(O)C(F)(F)F", "note": "(centres undefined)", "values": [{"measurement": "EC50", "setting": "[1]", "value": "> 112 µM (not active)"}, {"measurement": "EC50", "setting": "[2]", "value": "> 112 µM (not active)"}]}, {"smiles": "COc1ccc(Cl)cc1NC(=O)Nc1cc(C)on1", "values": [{"measurement": "EC50", "setting": "[1]", "value": "> 112 µM (not active)"}, {"measurement": "EC50", "setting": "[2]", "value": "> 112 µM (not active)"}]}, {"smiles": "CCc1c(C)c2cc(Cl)c(O)c(CN3CCCCC3)c2oc1=O", "values": [{"measurement": "AC50", "setting": "[3]", "value": "9.26 µM (active)"}]}, {"smiles": "CCC(=O)N1CCc2cc(S(=O)(=O)NCCC(=O)N3CCN(c4cccc(C)c4)C(C)C3)ccc21", "note": "(centres undefined)", "values": [{"measurement": "AC50", "setting": "[3]", "value": "72.4 µM (active)"}]}, {"smiles": "O=C(NCC1CC1)Nc1cccs1", "values": [{"measurement": "AC50", "setting": "[3]", "value": "4.97 µM (active)"}]}, {"smiles": "Cc1ccccc1OCC(=O)Nc1ccc2c(c1)C(=O)N(CCC(=O)O)C2=O", "values": [{"measurement": "EC50", "setting": "[4]", "value": "32.6 µM (active)"}]}, {"smiles": "O=C1OC(NC(=O)c2ccccc2)C(n2cc(CO)nn2)=C1Cl", "note": "(centres undefined)", "values": [{"measurement": "EC50", "setting": "[4]", "value": "35.7 µM (active)"}]}, {"smiles": "Cc1c(C(=O)N2CCCC2)sc(NC(=O)c2cccc(Cl)c2)c1C#N", "values": [{"measurement": "EC50", "setting": "[1]", "value": "> 112 µM (not active)"}, {"measurement": "EC50", "setting": "[2]", "value": "> 112 µM (not active)"}]}, {"smiles": "COc1ccc(OCC(=O)N2CCN(c3cccc(C(F)(F)F)c3)CC2)cc1", "values": [{"measurement": "EC50", "setting": "[4]", "value": "> 195 µM (not active)"}]}, {"smiles": "COC(=O)c1[nH]c2ccccc2c1NC(=O)CN1CCN(C(=O)c2ccco2)CC1", "values": [{"measurement": "EC50", "setting": "[1]", "value": "> 112 µM (not active)"}, {"measurement": "EC50", "setting": "[2]", "value": "> 112 µM (not active)"}]}, {"smiles": "COc1ccc(C(=O)NC(=S)NCCO)cc1Br", "values": [{"measurement": "EC50", "setting": "[4]", "value": "> 195 µM (not active)"}]}, {"smiles": "CC(C)c1nnc(SCC(=O)NCCC2=CCCCC2)n1N", "values": [{"measurement": "IC50", "setting": "[5]", "value": "> 66 µM (inactive)"}, {"measurement": "IC50", "setting": "[6]", "value": "> 66 µM (inactive)"}]}, {"smiles": "Cc1cc(NC(=O)c2ccccc2Cl)no1", "values": [{"measurement": "EC50", "setting": "[1]", "value": "> 112 µM (not active)"}, {"measurement": "EC50", "setting": "[2]", "value": "> 112 µM (not active)"}, {"measurement": "AC50", "setting": "[7]", "value": "14.1 µM (inconclusive)"}, {"measurement": "AC50", "setting": "[8]", "value": "31.6 µM (inconclusive)"}]}, {"smiles": "COCCn1c(SCC(=O)NCC2CCCO2)nc2c(c1=O)SCC2", "note": "(centres undefined)", "values": [{"measurement": "IC50", "setting": "[5]", "value": "> 66 µM (inactive)"}, {"measurement": "IC50", "setting": "[6]", "value": "> 66 µM (inactive)"}]}, {"smiles": "CCn1c(S)nnc1CN1C(=O)CSc2ccccc21", "values": [{"measurement": "AC50", "setting": "[3]", "value": "1.85 µM (active)"}]}, {"smiles": "Cc1cc(NC(=O)CSc2nccn2-c2cccc(Cl)c2)no1", "values": [{"measurement": "IC50", "setting": "[5]", "value": "> 66 µM (inactive)"}, {"measurement": "IC50", "setting": "[6]", "value": "> 66 µM (inactive)"}]}, {"smiles": "Oc1ccc[n+](CCCCC[n+]2cccc(O)c2)c1", "values": [{"measurement": "EC50", "setting": "[1]", "value": "> 112 µM (not active)"}, {"measurement": "EC50", "setting": "[2]", "value": "19 µM (active)"}]}, {"smiles": "CC1(Cc2ccc(OC(F)(F)F)cc2)C(=O)Nc2ccc(S(=O)(=O)NC3CCCCC3)cc21", "note": "(centres undefined)", "values": [{"measurement": "AC50", "setting": "[9]", "value": "9.35 µM (active)"}]}, {"smiles": "COc1cccc(S(=O)(=O)N(C)C[C@H]2OCc3ccccc3-c3c(n(C)c4ccccc34)C(=O)N([C@@H](C)CO)C[C@H]2C)c1", "values": [{"measurement": "AC50", "setting": "[9]", "value": "6.16 µM (active)"}]}, {"smiles": "C[C@H](CO)N1C[C@H](C)[C@@H](CN(C)CC2CCCCC2)Oc2ccc(NC(=O)Nc3ccc4c(c3)OCO4)cc2CC1=O", "values": [{"measurement": "AC50", "setting": "[9]", "value": "11 µM (active)"}]}, {"smiles": "COC(=O)N1CCN(C(=O)Cc2ccc(Cl)c(Cl)c2)[C@H](CN2CCCC2)C1", "values": [{"measurement": "AC50", "setting": "[10]", "value": "20 µM (inconclusive)"}]}, {"smiles": "CC(=O)N/N=C/c1cc(C)n(-c2ccc(Br)cc2)c1C", "values": [{"measurement": "AC50", "setting": "[3]", "value": "0.414 µM (active)"}]}, {"smiles": "O=C(c1ccccc1)c1cc2ccc(O)cc2oc1=O", "values": [{"measurement": "EC50", "setting": "[11]", "value": "8.12 µM (active)"}, {"measurement": "EC50", "setting": "[12]", "value": "> 150 µM (not active)"}, {"measurement": "EC50", "setting": "[1]", "value": "1.14 µM (active)"}, {"measurement": "EC50", "setting": "[2]", "value": "< 0.701 µM (active)"}, {"measurement": "EC50", "setting": "[13]", "value": "18.5 µM (active)"}]}, {"smiles": "CC(=O)Nc1c(I)c(NC(C)=O)c(I)c(C(=O)O)c1I", "note": "[DIATRIZOATE MEGLUMINE]", "values": [{"measurement": "EC50", "setting": "[4]", "value": "> 195 µM (not active)"}]}]}
